From BindingDB's records for doi:10.1016/s0028-3908(97)00038-5 (Smithkline Beecham Pharmaceuticals, 1997)

What was measured:
[1] = molecular target: 5-hydroxytryptamine receptor 7 (Homo sapiens, UniProt P34969)
[2] = molecular target: 5-hydroxytryptamine receptor 1B (Cricetulus griseus, UniProt P46636)
[3] = molecular target: Tyrosine-protein kinase Fyn (Homo sapiens, UniProt P06241)
[4] = molecular target: 5-hydroxytryptamine receptor 4 (Sus scrofa, UniProt Q29006)
[5] = molecular target: T1, Alpha-1B adrenergic receptor (Mesocricetus auratus, UniProt P18841)
T1 sequence (P18841 whole entry): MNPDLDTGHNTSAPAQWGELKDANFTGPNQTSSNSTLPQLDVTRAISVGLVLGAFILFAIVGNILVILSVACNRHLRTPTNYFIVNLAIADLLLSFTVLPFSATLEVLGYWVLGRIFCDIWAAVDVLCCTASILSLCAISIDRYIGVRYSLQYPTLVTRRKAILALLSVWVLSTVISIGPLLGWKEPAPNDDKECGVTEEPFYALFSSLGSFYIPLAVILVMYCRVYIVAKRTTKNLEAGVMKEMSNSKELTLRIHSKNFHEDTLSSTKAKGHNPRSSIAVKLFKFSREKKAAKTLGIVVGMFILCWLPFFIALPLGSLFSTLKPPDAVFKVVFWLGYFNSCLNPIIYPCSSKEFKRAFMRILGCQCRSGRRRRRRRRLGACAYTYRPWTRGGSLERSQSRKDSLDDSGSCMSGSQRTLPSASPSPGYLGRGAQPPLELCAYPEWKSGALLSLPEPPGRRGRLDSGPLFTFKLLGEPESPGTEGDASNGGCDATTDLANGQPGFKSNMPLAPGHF

D(2) dopamine receptor = D(2) dopamine receptor (Mesocricetus auratus, UniProt A0A1U7QAF5)
D(2) dopamine receptor, sequence (A0A1U7QAF5 whole entry): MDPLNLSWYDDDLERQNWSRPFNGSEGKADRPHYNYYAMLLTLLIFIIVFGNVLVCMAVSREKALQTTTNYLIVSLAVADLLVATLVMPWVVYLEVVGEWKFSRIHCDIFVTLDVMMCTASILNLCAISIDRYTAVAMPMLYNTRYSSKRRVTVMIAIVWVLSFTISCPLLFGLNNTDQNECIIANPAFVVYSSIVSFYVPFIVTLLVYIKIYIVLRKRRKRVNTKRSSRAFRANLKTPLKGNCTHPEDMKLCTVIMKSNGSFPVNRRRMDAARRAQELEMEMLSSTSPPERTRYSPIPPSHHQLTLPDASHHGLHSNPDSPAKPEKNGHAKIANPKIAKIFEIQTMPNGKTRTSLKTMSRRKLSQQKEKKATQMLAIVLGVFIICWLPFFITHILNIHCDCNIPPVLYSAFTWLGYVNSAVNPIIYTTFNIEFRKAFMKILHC

D(3) dopamine receptor = D(3) dopamine receptor (Cricetulus griseus, UniProt A0A3Q0CXS4)
D(3) dopamine receptor, sequence (A0A3Q0CXS4 whole entry): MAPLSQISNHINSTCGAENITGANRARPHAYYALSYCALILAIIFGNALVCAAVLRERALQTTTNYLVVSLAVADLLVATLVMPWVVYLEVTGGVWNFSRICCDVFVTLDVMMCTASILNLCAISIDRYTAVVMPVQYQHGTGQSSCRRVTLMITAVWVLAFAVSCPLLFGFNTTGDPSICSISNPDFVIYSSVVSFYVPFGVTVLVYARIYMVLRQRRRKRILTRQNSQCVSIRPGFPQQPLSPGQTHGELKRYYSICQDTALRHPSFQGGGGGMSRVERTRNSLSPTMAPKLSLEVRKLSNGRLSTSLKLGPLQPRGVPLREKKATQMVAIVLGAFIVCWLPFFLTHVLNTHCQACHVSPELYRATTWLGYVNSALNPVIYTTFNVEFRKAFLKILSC

5-hydroxytryptamine receptor 1B, sequence (P46636 whole entry): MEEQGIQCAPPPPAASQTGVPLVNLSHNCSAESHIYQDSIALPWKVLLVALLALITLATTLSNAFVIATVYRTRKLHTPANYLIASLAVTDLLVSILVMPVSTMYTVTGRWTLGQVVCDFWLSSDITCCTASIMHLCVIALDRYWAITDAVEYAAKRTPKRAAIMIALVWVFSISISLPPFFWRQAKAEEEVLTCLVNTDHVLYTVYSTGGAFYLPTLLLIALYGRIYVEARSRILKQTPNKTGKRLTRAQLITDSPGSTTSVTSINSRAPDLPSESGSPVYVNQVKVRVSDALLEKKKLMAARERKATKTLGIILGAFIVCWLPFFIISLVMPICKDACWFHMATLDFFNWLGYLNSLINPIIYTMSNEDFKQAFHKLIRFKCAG
5-hydroxytryptamine receptor 4, sequence (Q29006 whole entry): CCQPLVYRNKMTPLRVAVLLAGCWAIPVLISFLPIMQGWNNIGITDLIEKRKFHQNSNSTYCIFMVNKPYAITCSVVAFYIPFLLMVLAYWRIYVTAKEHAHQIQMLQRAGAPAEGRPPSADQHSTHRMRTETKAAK
Tyrosine-protein kinase Fyn, sequence (P06241 whole entry): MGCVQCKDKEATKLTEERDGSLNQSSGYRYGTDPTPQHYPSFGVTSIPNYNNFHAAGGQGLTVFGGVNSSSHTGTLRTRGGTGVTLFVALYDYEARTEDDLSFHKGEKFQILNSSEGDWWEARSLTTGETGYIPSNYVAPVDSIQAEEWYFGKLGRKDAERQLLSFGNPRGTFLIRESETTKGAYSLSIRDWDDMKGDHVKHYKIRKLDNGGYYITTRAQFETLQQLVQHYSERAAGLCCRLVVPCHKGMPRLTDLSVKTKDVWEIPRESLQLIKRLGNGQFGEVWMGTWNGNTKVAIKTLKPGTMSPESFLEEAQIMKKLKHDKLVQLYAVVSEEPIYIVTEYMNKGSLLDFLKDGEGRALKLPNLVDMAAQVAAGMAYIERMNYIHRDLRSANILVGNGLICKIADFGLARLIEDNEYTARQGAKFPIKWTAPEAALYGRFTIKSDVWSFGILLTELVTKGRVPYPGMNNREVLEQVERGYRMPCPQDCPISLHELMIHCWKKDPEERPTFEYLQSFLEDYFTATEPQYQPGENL
5-hydroxytryptamine receptor 7, sequence (P34969 whole entry): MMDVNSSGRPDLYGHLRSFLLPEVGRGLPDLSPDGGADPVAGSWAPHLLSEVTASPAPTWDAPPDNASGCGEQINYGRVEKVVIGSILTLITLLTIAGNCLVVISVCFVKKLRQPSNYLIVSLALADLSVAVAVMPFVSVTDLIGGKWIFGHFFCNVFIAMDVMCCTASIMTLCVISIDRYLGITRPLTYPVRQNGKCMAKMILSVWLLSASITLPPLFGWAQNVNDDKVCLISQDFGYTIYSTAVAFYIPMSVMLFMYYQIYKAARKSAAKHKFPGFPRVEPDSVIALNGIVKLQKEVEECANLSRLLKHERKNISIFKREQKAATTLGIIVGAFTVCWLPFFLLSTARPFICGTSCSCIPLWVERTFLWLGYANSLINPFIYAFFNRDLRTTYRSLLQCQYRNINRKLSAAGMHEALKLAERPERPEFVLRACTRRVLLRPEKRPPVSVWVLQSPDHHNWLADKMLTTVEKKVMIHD

A Ki [1] of 794 nM, a Ki [2] of 398 nM and a Ki [3] of 1000 nM were found for `Cc1cc2c(cc1Cl)N(C(=O)Nc1ccc(Oc3cccnc3C)nc1)CC2` [CAS_181632-25-7] in this work. The Ki [4] was 3160 nM, the Ki [5] was > 10000 nM and the Ki (D(2) dopamine receptor) was 631 nM. It also gave a Ki (D(3) dopamine receptor) of 631 nM.
